Tests used:
sAPPα [1] = assay: sAPPα ELISA, fibroblasts derived from AD patients; format: cell-based, human; details: 24 h
Description: (1). […] Therefore, we first used fibroblasts derived from AD patients (AG06263C, Coriell Cell repository, supported by NINDS/NIH) and exposed to THPI-244 for 24 h and measured sAPPα release by ELISA as done above for NT2 cells. […] We also confirmed dose-dependent effect of THPI-244 on sAPPα levels in human primary neurons transiently transfected with APP751 with Swedish mutation which is trafficked differently from WT APP and releases more sAPPα. Human neurons were grown on specially coated glass coverslips (cat #GG-18-PDL, NeuVitro, Germany). We could reproducibly achieve nearly 30% transfection efficiency using a nanoparticle based transfection reagent called Neuromag (cat #NM150299, OZ Biosciences, France).

[2] = tested on: sAPPα in supernatants of 7WD10 cells; assay: Western blot sAPPα release assay, 7WD10 cells; format: cell-based; details: 10 nM, 7WD10 supernatant
Description: (2). To ascertain that hits identified as a result of AlphaLISA assay are not due to artifacts of the detection system, the sAPPα levels were measured by Western blots as a secondary assay downstream of primary HTS to confirm hits or discard artifacts of the AlphaLISA assay. The assay was performed using a range of concentrations of hit compounds (10-5,000 nM). A hit compound named thiazole piperazine #244 (THPI-244) and THPI-326 induced dose-dependent increase of sAPPα in supernatants of 7WD10 cells (FIG. 1.3). […] Since compound THPI-244 increased sAPPα levels more than THPI-326, we focused on THPI-244 for further validation.
Western blot sAPPα release assay. 7WD10 cells were grown in 6-well plates and treated with test compounds and SAHA (vorinostat) at several concentrations in duplicate wells. After 24 h of drug exposure, the conditioned media (CM) was collected, centrifuged to remove cell debris and subjected to SDS-PAGE electrophoresis. sAPPα (6E10, mouse IgG from IBL America ltd) was detected using indicated antibody. […] Samples were subjected to SDS-PAGE, transferred and immunoblotted with indicated antibodies and detected by enhanced chemiluminescence method. Quantification of Western blot signals was done using ImageJ software.

sAPPα [3] = assay: sAPPα ELISA, NT2 cells stably expressing APP751; format: cell-based, human; details: 24 h
Description: (§1) (5). To confirm the effect of THPI-244 on sAPPα levels in a neuronal cell line and by a tertiary assay, we exposed human Neuron-committed Teratocarcinoma cell line (NT2) stably expressing human APP751 to different concentrations of THPI-244 for 24 h and compared with that of Bryostatin, a classical activator of PKC known to stimulate sAPPα release. […] Levels of sAPPα were measured by ELISA using commercially available kit (cat #27734, IBL-America, Minneapolis, Minn., USA). […] Similar biphasic effect of Bryostatin was confirmed for Aβ42 also, measured again in NT2 stable cells by ELISA (cat #KHB3441, Life Technologies, Grand Island, N.Y., USA). Consistent with sAPPα, THPI-244 decreased Aβ42 levels dose-dependently starting from 50 nM (28%, p<0.05) to 2000 nM (64%, p<0.001) (n=4 independent experiments) (FIG. 1.7). Thus THPI-244 increased non-amyloidogenic processing of APP in NT2 cells.

P75NTR = assay: Signal transduction analysis, P75NTR; format: cell-based, human; details: NT2 cells
Description: (§2) (2). THPI-244 increases sAPPα by a novel mechanism of upregulating TrkA, a neurotrophic receptor. Therefore, in addition to increasing neuroprotective sAPPα and decreasing toxic Aβ, THPI-244 mediated increased TrkA protein levels are expected to provide neurotrophic support. Following the validation of the effect of THPI-244 in increasing sAPPα levels in CHO cells, NT2 cells, AD fibroblasts and human primary neurons, we were interested in identifying the molecular target of THPI-244 for unraveling the molecular mechanism by which it increases sAPPα which in turn can predict toxicity profile and whether to pursue long-term studies. Increased protein levels of both native and phosphorylated form of TrkA in NT2 cells and mouse brains by THPI-244 validated TrkA as the target.

[4] = tested on: Wild-type (WT) C57BL/6 mice; assay: Lethal dose (LD50) study in mice; format: in vivo, mouse
Description: Wild-type (WT) C57BL/6 mice aged about 6 months were used in the study. The compound THPI-244 was initially dissolved in 100% DMSO and then diluted to final 10% DMSO with phosphate buffered saline (PBS). […] Among these 6 mice, 3 mice received repeated injections (i.p) of compound THPI-244 for 5 days.

TrkA [5] = molecular target: TrkA (Homo sapiens, UniProt P04629); assay: Table of THPI-244 analogs: TrkA increase
Aβ42 = Aβ42 ELISA, NT2 stable cells; format: cell-based, human
Description: as §1

TrkA [6] = molecular target: T1, TrkA (Mus musculus, UniProt Q3UFB7); assay: Mouse brain lysate immunoblot, TrkA; format: in vivo; details: 100 mg/kg i.p. for 5 days
T1 construct: from tissue; host or cells: mouse brain lysate
Description: FIGS. 9.2A and B illustrate that THPI-244 increases TrkA and sAPPα in the mouse brain. FIG. 9.2A illustrates that THPI-244 was administered to mice by i.p. injections at 100 mg/kg body weight for 5 days and the brain lysates were subjected to immunoblots. Specific antibodies were used to detect TrkA and sAPPα. […] Data are mean±SEM, n=3*, p<0.05, ***, p<0.001.

PI3Kα = assay: Signal transduction analysis, PI3Kα; format: cell-based, human; details: NT2 cells
Description: as §2

human primary neurons = assay: MTT cytotoxicity assay, human primary neurons; format: cell-based; details: 24 h exposure
Description: (4). Toxicity is another crucial limitation for successful drug development as evidenced by recent failure of γ-secretase inhibitors at the clinical trials due to cytotoxicity (Cole, S L and Vassar, R, 2007, Mol. Neurodeg. 2, 22-47; Doody R S, et al. 2013. N. Eng. J. Med. 369, 341-350). Therefore we measured cytotoxicity by very sensitive MTT assay as described previously (Hayes, C D., et al. 2013, BMC Medicine. 26, 11.81; 23; Hayes, C D., et al., 2012, PLoS One 7, e45841) in human primary neurons obtained from a commercial source (cat #1520, ScienCell, Carlsbad, Calif., USA) and fibroblasts derived directly from AD patients (cat #AG06263C, Coriell Institute Cell repository supported by NINDS, NIH). […] We directly used human neurons for toxicity studies so as to reduce the chances of future failure at a later stage due to toxicity.

Chain of TrkA (Homo sapiens, UniProt P04629) (P04629 33-796, species assumed): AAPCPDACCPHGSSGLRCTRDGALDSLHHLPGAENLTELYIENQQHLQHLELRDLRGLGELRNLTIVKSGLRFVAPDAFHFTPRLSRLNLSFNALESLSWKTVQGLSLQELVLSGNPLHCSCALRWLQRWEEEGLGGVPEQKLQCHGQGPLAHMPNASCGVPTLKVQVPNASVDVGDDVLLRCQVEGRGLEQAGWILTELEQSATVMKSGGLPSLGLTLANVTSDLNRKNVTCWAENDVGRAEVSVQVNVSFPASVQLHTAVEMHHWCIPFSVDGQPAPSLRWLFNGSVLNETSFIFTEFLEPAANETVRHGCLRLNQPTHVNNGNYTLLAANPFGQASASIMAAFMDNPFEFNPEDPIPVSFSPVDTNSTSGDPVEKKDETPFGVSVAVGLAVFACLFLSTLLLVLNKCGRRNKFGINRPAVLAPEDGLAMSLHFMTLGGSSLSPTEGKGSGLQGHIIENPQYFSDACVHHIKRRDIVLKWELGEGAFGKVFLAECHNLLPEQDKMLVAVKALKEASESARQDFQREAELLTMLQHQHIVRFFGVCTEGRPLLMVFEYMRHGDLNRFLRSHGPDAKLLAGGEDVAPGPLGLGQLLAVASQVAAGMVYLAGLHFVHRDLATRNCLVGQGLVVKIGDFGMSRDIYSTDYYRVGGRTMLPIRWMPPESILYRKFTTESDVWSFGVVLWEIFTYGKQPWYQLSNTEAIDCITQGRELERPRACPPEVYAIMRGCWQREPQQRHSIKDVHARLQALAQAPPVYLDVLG
T1 sequence (Q3UFB7 34-799): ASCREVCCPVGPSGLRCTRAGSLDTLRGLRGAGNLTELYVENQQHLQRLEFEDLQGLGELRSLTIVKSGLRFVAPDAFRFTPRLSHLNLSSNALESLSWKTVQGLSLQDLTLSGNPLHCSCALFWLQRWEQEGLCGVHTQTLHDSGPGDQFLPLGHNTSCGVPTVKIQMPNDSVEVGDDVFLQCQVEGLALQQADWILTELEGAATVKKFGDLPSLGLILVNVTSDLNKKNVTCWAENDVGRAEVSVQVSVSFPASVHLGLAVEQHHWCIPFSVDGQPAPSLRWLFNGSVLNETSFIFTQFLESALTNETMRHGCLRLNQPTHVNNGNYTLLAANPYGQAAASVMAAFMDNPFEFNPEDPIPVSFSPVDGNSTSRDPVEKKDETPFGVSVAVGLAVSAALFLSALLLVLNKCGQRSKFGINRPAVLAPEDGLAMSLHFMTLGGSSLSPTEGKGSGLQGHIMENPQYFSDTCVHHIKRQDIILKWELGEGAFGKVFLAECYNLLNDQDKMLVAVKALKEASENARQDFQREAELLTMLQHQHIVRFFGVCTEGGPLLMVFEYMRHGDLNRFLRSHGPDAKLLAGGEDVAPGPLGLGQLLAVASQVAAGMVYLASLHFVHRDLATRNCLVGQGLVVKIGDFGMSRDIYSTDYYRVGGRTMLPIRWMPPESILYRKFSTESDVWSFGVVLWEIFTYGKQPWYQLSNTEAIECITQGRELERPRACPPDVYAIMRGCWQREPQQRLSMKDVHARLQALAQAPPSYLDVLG

O=C(Cc1ccccc1)N[C@H](CNc1nc(CN2CCN(C(=O)Cc3ccccc3)CC2)cs1)c1ccccc1 [THPI-244]
lowest concentration with significant increase of sAPPα (sAPPα [1]): 50 nM
increase of sAPPα over untreated control cells (Western blot) [2]: 2 fold
lowest concentration with significant increase of sAPPα (sAPPα [3]): 50 nM
effect on P75NTR (P75NTR): did not affect
lethality ([4]; 100 mg/kg i.p., 6 mice, monitored for 5 days): did not result in the death of any of the 6 mice
lethality ([4]; 200 mg/kg, single mouse): survived without visible ill effects
lethality ([4]; repeated i.p. injections for 5 days, 3 mice): None of the mice showed any lethal effect
% TrkA ⬆ (TrkA [5]): 99%
lowest concentration with significant decrease of Aβ42 (Aβ42): 50 nM
increase of TrkA in brain (TrkA [6]): 78%
effect on PI3Kα pathway (PI3Kα): activation of PI3Kα
lowest concentration with significant cytotoxicity (human primary neurons): 40 µM
